Laboratory results as given in BindingDB's records for patent US20240025883 (Hoffmann-La Roche, 2024).

molecular target: Uracil nucleotide/cysteinyl leukotriene receptor (Homo sapiens, UniProt Q13304); test: GPR17 cAMP Assay Protocol
Description: GPR17 cAMP Assay Protocol: CHO-K1 cells stably expressing vector containing untagged human GPR17 short isoform (Roche) were cultured at 37° C./5% CO2 in DMEM (Dulbecco's Modified Eagle Medium):F-12 (1:1) supplemented with 10% foetal bovine serum and 400 μg/ml Geneticin. Changes in intracellular cyclic adenosine monophosphate (cAMP) levels were quantified using the Nano-TRF Detection Assay kit (Roche Diagnostics, Cat. No. 05214386001). This assay allows for direct cAMP quantification in a homogeneous solution, cAMP is detected based on time-resolved fluorescence energy transfer (TR-FRET) and competitive binding of ruthenylated cAMP and endogenous cAMP to an anti-cAMP monoclonal antibody labeled with AlexaFluor-700. The Ruthenium complex serves as the FRET donor and transfers energy to AlexaFluor-700. The FRET signal is inversely proportional to the cAMP concentration. CHO-GPR17S cells were detached with Accutase and resuspended in assay buffer consisting of Hank's Balanced Salt Solution (HBSS), 10 mM HEPES (4-(2-hydroxyethyl) piperazine-1-ethanesulfonic acid solution) and 0.1% bovine serum albumin (pH 7.4). The cells were seeded in black 384-well plates (Corning) at a density of 10,000 cells/20 μl assay buffer until the addition of compounds.

Sequence of Uracil nucleotide/cysteinyl leukotriene receptor (Q13304 whole entry, canonical isoform): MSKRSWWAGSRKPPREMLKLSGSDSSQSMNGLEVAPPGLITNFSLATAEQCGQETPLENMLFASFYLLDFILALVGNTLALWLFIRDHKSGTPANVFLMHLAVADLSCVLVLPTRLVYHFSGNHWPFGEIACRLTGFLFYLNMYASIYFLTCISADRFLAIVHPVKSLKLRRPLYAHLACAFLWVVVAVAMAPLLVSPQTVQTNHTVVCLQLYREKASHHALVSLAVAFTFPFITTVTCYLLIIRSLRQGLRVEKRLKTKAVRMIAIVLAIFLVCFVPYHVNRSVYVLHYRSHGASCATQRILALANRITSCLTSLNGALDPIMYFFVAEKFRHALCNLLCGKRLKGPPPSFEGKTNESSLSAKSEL

| IC50 | SMILES |
| --- | --- |
| 22 nM | COc1nc(NS(=O)(=O)c2c[nH]c3c(C#N)c(Cl)ccc23)nc(OC)c1CC(F)F [US20240025883, Example 227] |
| 68 nM | COc1nc(NS(=O)(=O)c2c[nH]c3nc(C(F)F)ccc23)nc(OC)c1OCCF [US20240025883, Example 95] |
| 96 nM | COc1nc(NS(=O)(=O)c2c[nH]c3cc(SC)ccc23)ncc1CC(F)F [US20240025883, Example 193] |
| 14 nM | COc1nc(NS(=O)(=O)c2c[nH]c3cc(C(F)F)ccc23)nc(OC)c1OCC(F)F [US20240025883, Example 102] |
| 32 nM | COc1nc(NS(=O)(=O)c2c[nH]c3c(C#N)c(Cl)ccc23)nc(OC)c1OCCF [US20240025883, Example 225] |
| 161 nM | COc1nc(NS(=O)(=O)c2c[nH]c3c4c(ccc23)COC4)ncc1CC(F)F [US20240025883, Example 228] |
| 35 nM | COc1nc(NS(=O)(=O)c2c[nH]c3c(C#N)c(Cl)ccc23)nc(OC)c1OCC(F)F [US20240025883, Example 226] |
| 50 nM | COc1nc(NS(=O)(=O)c2c[nH]c3nc(C(F)F)ccc23)nc(OC)c1OC(F)(F)CF [US20240025883, Example 97] |
| 17 nM | COc1nc(NS(=O)(=O)c2c[nH]c3cc(Cl)ccc23)nc(OC)c1OC(F)(F)CF [US20240025883, Example 55] |
| 29 nM | COc1nc(NS(=O)(=O)c2c[nH]c3nc(C(F)F)ccc23)nc(OC)c1OCC(F)F [US20240025883, Example 96] |
| 17 nM | COc1nc(NS(=O)(=O)c2c[nH]c3cc(Cl)ccc23)nc(OC)c1OCC(F)F [US20240025883, Example 54] |
| 66 nM | COc1nc(NS(=O)(=O)c2c[nH]c3cc(F)ccc23)nc(OC)c1OC(F)(F)CF [US20240025883, Example 87] |
